The values below come from US20240124539A1, “CROSSLINKED HELIX DIMER MIMICS OF SOS AND METHODS OF USING SAME” (NEW YORK UNIVERSITY, priority 2020, published 2024).

Positions of bridges follow the written chain, without caps; N, C: chain ends. Non-standard residues stand in square brackets, D forms with d. Residues, ends and D or L forms follow the SMILES beside them. Chains are numbered I, II in the order given. No end group written: not given here. dibenzylether crosslinker = scaffold alkylating both cysteine thiols (drawn in Scheme 1 and; hArg = N=C(N)NCCCC[C@H](N)C(=O)O; DZ = diazirine photocrosslinker

For experiment [1], the target named is T1, wild-type His6-tagged H-Ras (1-166) pre-loaded with GDP (Homo sapiens, UniProt P01112).
T1 construct: wild-type and mutant His6-tagged H-Ras (1-166) pre-loaded with GDP; made in house; host or cells: Escherichia coli (BL21)
In words: Fluorescence polarization binding assay, wild-type H-Ras-GDP. The source says: GTP of the Ras-specific nucleotide exchange factor SOS. Cell 112, 685-695 (2003).

The next experiment concerns H358 cells. Briefly: Photoaffinity labeling with quantitative MS-based proteomics in H358 cells. The experiment is classed as cell-based, Homo sapiens. Particulars: TMT abundance, negative control diazirine probe. Here is the method:
H358 cells were grown to 80-95% confluence in 10 cm plates with FBS-supplemented RPMI-1640. The growth medium was aspirated and the cells were washed with Dulbecco's phosphate-buffered saline (DPBS). The cells were then incubated with serum-free medium containing probes DZ2-CHC^Sos-5 (20 μM in RPMI-1640 with 0.4% DMSO, two replicates) or control probe CP-2-66 (20 μM in RPMI-1640 with 0.4% DMSO, four replicates) for 4 hours at 37° C. under an atmosphere of 5% CO2 before being irradiated under UV light (365 nm, 30 min, 4° C.). The cells were washed with DPBS, scraped and transferred to 1.5 mL Eppendorf tubes, pelleted, and stored at −80° C. until the next step.
Cell pellets were resuspended in 500 μL of DPBS and lysed by sonication (15 ms on, 40 ms off, 15% amplitude, 1 s total on×2). Protein concentrations were normalized (1-2 mg/mL; final volume of 500 μL with DPBS) using the Lowry Protein Assay (Pierce). To each sample was added solutions of tris((1-benzyl-4-triazolyl)methyl)amine (30 μl, 1.7 mM in DMSO/t-BuOH 1:4 v/v), tris(2-carboxyethyl)phosphine (10 μL, 50 mM), biotin-PEG3-azide (5 μL, 100 μM), and CuSO4 (10 μL, 50 mM) and the samples were shaken at room temperature for 1 hour. A cold MeOH/CHCI3 mixture (2.5 mL, 4:1 v/v) was added to each lysate, followed by 1 mL of cold DPBS. The resulting mixture was vortexed and centrifuged (4,700× g, 10 min, 4° C.). The organic and aqueous layers were aspirated, and the remaining protein disk was further washed via sonication in cold MeOH/CHCl3 solution (2 mL, 4:1) and pelleted by centrifugation (4,700× g, 10 min, 4° C.). The protein pellet was aspirated and combined with freshly prepared urea solution (500 μL, 6 M in DPBS) and a solution of SDS (with 10 μL of 10% w/v) by sonication. A freshly prepared 1:1 solution (50 μL) of TCEP (200 mM in DPBS) and K2CO3 (600 mM in DPBS) was added and the mixture was incubated for 30 min at 37° C. with shaking. A solution of freshly prepared iodoacetamide (70 μL, 400 mM in DPBS) was added and the mixture was incubated at RT in the absence of light. Each sample was combined with a solution of SDS (130 μL, 10% in DPBS w/v) followed by DPBS (5.5 mL) and incubated with pre-equilibrated streptavidin-agarose beads (100 μL of a 50% slurry; Pierce) for 1.5 hours at RT while rotating. The streptavidin beads were pelleted by centrifugation (750 g, 2 min, 4° C.) and sequentially washed with SDS solution (1×5 mL, 0.2% in DPBS), DPBS (2×5 mL), and triethylammonium bicarbonate buffer (1×5 mL, TEAB, 100 mM, pH 8.4). The beads were resuspended in TEAB (0.5 mL, 100 mM pH 8.5) and transferred into LoBind microcentrifuge tubes. The tube was washed once more with TEAB (0.5 mL, 100 mM pH 8.5) to ensure complete transfer of the beads, which were then pelleted by centrifugation (750× g, 2 min, 4° C. and the supernatant aspirated. Each sample of beads was combined with a solution of CaCl2 (2 μL, 100 mM) and a solution of sequencing-grade porcine trypsin (2 μg, Promega in 200 μL TEAB, 100 mM, pH 8.4), and incubated for 14 hours at 37° C.with shaking. The beads were pelleted by centrifugation (750× g, 2 min, 4° C.) and the supernatants were transferred to new
LoBind micro-centrifuge tubes. Each digested sample was TMT 10plex labeled (Thermo Fisher Scientific): for each sample a stock solution of TMT reagent (8 μL, 20 μg/μL) was added along with dry MS-grade acetonitrile (final acetonitrile concentration 30% v/v), followed by incubation at RT for 1 hour. The reaction was quenched by adding hydroxylamine (6 μL) and left to stand for 15 min, followed by the addition of formic acid (5 μL). Each TMT-labeled sample was dried via vacuum centrifugation, and the samples were combined by redissolving one sample in a solution of trifluoroacetic acid (TFA, 200 μL, 0.1% in water) and transferring the solution into each sample tube until all samples were redissolved. […]

In a further experiment the target is T2, H-Ras (Homo sapiens, UniProt P01112).
T2 construct: Wild-type and mutant N-terminal His6-H-Ras (residues 1-166) in pProEx HTb expression vector; His6 (N, cleaved yes); made in house; host or cells: Escherichia coli (BL21)
Briefly: Photoaffinity labeling of purified H-Ras and tryptic digest MS. The experiment is classed as binding. To be noted: 5 eq. probe, UV light, trypsin digest. Here is the method: For each experiment, a sample of 250 μM diazirine-labeled CHD peptide was
Incubated samples were then photo-irradiated for 5 minutes at 24 °C. Photo-conjugated samples were then mixed with 1× SDS-PAGE loading buffer containing 5% 2-mercaptoethanol (200 μL final volume) and heated at 95° C. for 5 minutes. Heated samples were then separated via SDS-PAGE gel electrophoresis on a 1.0 mm 15% polyacrylamide gel. The resulting gel was stained with Coomassie Brilliant Dye and subsequently destained (40% MeOH/10% acetic acid/50% water).
In-gel tryptic digest was conducted with the In-Gel tryptic Digestion Kit (Thermo Scientific) according the manufacturer's instructions. Upon photoaffinity labeling, the conjugated band was isolated as a 1×1 mm segment for in-gel trypsin digest. The isolated gel band was then incubated with 200 μL of Coomassie destaining solution (25 mM ammonium bicarbonate in 1:1 ultrapure water:acetonitrile) for 30 minutes at 37 °C. After incubation, destaining buffer was removed, and the destaining step was repeated twice more. The destained gel band was treated with reducing buffer (25 mM of ammonium bicarbonate, 50 mM TCEP) for 10 minutes at 60° C. After discarding the reducing buffer, the band was treated with 200 μL of iodoacetamide alkylation solution (25 mM ammonium bicarbonate, 100 mM iodoacetamide) for 30 minutes at 37° C. while shaking in the dark. […]

In turn, `CC[C@H](C)[C@H](NC(=O)[C@H](Cc1ccccc1)NC(C)=O)C(=O)NCC(=O)N[C@@H](CCCNC(=N)N)C(=O)N[C@@H](CC(C)C)C(=O)N[C@@H](CSCc1ccc(COCc2ccc(CSC[C@H](NC(=O)[C@H](CC(C)C)NC(=O)[C@H](CCCNC(=N)N)NC(=O)[C@H](C)NC(=O)[C@H](CC(C)C)NC(=O)[C@H](CCC(=O)O)NC(=O)[C@H](CCCNC(=N)N)NC(=O)[C@H](CCC(=O)O)NC(=O)[C@H](CC(C)C)NC(=O)[C@H](CCC(=O)O)NC(=O)[C@H](CCCNC(=N)N)NC(=O)[C@H](CC(C)C)NC(=O)[C@H](CCCNC(=N)N)NC(=O)[C@H](Cc3c[nH]c4ccccc34)NC(=O)[C@H](C)NC(=O)[C@H](CC(C)C)NC(C)=O)C(N)=O)cc2)cc1)C(=O)N[C@H](C(=O)N[C@@H](CC(N)=O)C(=O)N[C@H](C(=O)N[C@@H](CC(C)C)C(=O)N[C@@H](CCCCN)C(=O)N[C@@H](CC(C)C)C(=O)N[C@@H](CCCNC(=N)N)C(=O)N[C@@H](CCC(=O)O)C(=O)NCC(=O)N[C@@H](CC(N)=O)C(N)=O)[C@@H](C)CC)[C@@H](C)O` [CHC^Sos-1] (HELM PEPTIDE1{[ac].F.I.G.R.L.C.T.N.I.L.K.L.R.E.G.N.[am]}|PEPTIDE2{[ac].L.A.W.R.L.R.E.L.E.R.E.L.A.R.L.C.[am]}|CHEM1{[c1cc(C[*:1])ccc1COCc1ccc(C[*:2])cc1]}$PEPTIDE1,CHEM1,7:R3-1:R1|PEPTIDE2,CHEM1,17:R3-1:R2$$$V2.0) had a Kd in experiment [1] of 32 ± 6 µM.

As for `C#CCCC1(CCC(=O)NC)N=N1` [CP-266], the “Average Abundance CP-266” value in the experiment on H358 cells (enriched protein AHSA1 (O95433)) is listed as 157; in the experiment on H358 cells (enriched protein EEF1D (P29692)), 614; in the experiment with H358 cells (enriched protein HNRNPR (O43390)) it was 1745; with H358 cells (enriched protein PMVK (Q15126)) it was 177; with H358 cells (enriched protein PPP4C (P60510)) it was 60; in the experiment on H358 cells (enriched protein STK26 (Q9P289)), 170.

On to “DZ1-CHC^Sos-5: CHD^Sos-5 with diazirine photocrosslinker at N-terminus of αI helix: DZ-GLAWRLRELERELARLC-NH2 (chain 1 WIGRLCTEI[hArg]RLRNGN; chain 2 {DZ}-GLAWRLRELERELARLC-NH2; linker I:6-II:17 via dibenzylether crosslinker)”, for which the “Ras binding site by photo-crosslinking” value in the experiment with H-Ras is “photo-crosslinked with the Ras hinge region”.
